This is an account of results in patent US8748426B2, “Inhibitors of diacylglycerol acyl transferase” (Piramal Enterprises Limited, priority 2009, dated 2014).

Each structure is given as a SMILES string.

The test has as its target T1, hDGAT1 (Homo sapiens, UniProt O75907).
T1 sequence (O75907 1-488): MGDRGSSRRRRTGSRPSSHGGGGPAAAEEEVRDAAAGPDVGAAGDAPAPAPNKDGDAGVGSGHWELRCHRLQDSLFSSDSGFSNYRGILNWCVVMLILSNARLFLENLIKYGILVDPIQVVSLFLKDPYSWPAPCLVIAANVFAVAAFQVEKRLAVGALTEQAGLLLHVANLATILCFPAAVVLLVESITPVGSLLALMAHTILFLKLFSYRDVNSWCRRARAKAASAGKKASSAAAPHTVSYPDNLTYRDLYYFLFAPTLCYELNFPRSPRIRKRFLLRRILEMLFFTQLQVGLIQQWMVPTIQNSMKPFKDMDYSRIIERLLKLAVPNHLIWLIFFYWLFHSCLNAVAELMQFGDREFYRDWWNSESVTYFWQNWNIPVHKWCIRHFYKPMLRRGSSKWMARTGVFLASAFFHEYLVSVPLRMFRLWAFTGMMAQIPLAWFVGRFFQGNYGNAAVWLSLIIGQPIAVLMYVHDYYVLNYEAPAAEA
The experiment in a line: In-vitro DGAT1 assay (14C oleoyl CoA, hDGAT1 microsomes from Sf9 cells). The following applies: for inhibition at 1 µM: read-out: % Inhibition of hDGAT1.

For `CC(C)[C@@H](C(=O)O)N1Cc2ccc(-c3ccc(NC(=O)c4ccc5c(c4)OCO5)cc3)cc2C1=O` [Example 128, (S)-2-(6-(4-(Benzo[d][1,3]dioxole-5-carboxamido)phenyl)-1-oxoisoindolin-2-yl)-3-methylbutanoic acid], the inhibition at 1 µM is more than 50%.

On to `CC(C)[C@@H](C(=O)O)N1Cc2ccc(-c3ccc(NC(=O)c4c(Cl)cccc4Cl)cc3)cc2C1=O` [Example 130, (S)-2-(6-(4-(2,6-Dichlorobenzamido)phenyl)-1-oxoisoindolin-2-yl)-3-methyl butanoic acid], for which the inhibition at 1 µM fell in the range of 10 to 50%.

`CC(C)[C@@H](C(=O)O)N1Cc2ccc(-c3ccc(NC(=O)c4ccccc4Cl)cc3)cc2C1=O` [Example 132, (S)-2-(6-(4-(2-Chlorobenzamido)phenyl)-1-oxoisoindolin-2-yl)-3-methyl butanoic acid]: the inhibition at 1 µM fell in the range of 10 to 50%.

Turning to `CC(C)[C@@H](C(=O)O)N1Cc2ccc(-c3ccc(NC(=O)c4ccc(Cl)cc4Cl)cc3)cc2C1=O` [Example 134, (S)-2-(6-(4-(2,4-Dichlorobenzamido)phenyl)-1-oxoisoindolin-2-yl)-3-methyl butanoic acid], the inhibition at 1 µM is 10 to 50%.

In the case of `CCCCOc1ccc(C(=O)Nc2ccc(-c3ccc4c(c3)C(=O)N([C@H](C(=O)O)C(C)C)C4)cc2)cc1` [Example 136, (S)-2-(6-(4-(4-Butoxybenzamido)phenyl)-1-oxoisoindolin-2-yl)-3-methyl butanoic acid], the inhibition at 1 µM is more than 50%.

In the case of `CC(C)[C@@H](C(=O)O)N1Cc2ccc(-c3ccc(NC(=O)c4c(F)cccc4F)cc3)cc2C1=O` [Example 138, (S)-2-(6-(4-(2,6-Difluorobenzamido)phenyl)-1-oxoisoindolin-2-yl)-3-methyl butanoic acid], the inhibition at 1 µM lay within 10 to 50%.

Take `CC(C)[C@@H](C(=O)O)N1Cc2ccc(-c3ccc(NC(=O)c4ccc(F)c(F)c4)cc3)cc2C1=O` [Example 140, (S)-2-(6-(4-(3,4-Difluorobenzamido)phenyl)-1-oxoisoindolin-2-yl)-3-methyl butanoic acid]: the inhibition at 1 µM was more than 50%.

In the case of `COc1ccc(C(=O)Nc2ccc(-c3ccc4c(c3)C(=O)N([C@H](C(=O)O)C(C)C)C4)cc2)cc1OC` [Example 142, (S)-2-(6-(4-(3,4-Dimethoxybenzamido)phenyl)-1-oxoisoindolin-2-yl)-3-methyl butanoic acid], the inhibition at 1 µM was 10 to 50%.

Turning to `COc1cc(C(=O)Nc2ccc(-c3ccc4c(c3)C(=O)N([C@H](C(=O)O)C(C)C)C4)cc2)cc(OC)c1OC` [Example 144, (S)-3-Methyl-2-(1-oxo-6-(4-(3,4,5-trimethoxybenzamido)phenyl)isoindolin-2-yl)butanoic acid], the inhibition at 1 µM is more than 50%.

As to `CCOc1cc(OCC)cc(C(=O)Nc2ccc(-c3ccc4c(c3)C(=O)N([C@H](C(=O)O)C(C)C)C4)cc2)c1` [Example 146, (S)-2-(6-(4-(3,5-Diethoxybenzamido)phenyl)-1-oxoisoindolin-2-yl)-3-methyl butanoic acid], the inhibition at 1 µM is more than 50%.

For the compound `CC(C)[C@@H](C(=O)O)N1Cc2ccc(-c3ccc(NC(=O)c4ccccc4Oc4ccccc4)cc3)cc2C1=O` [Example 152, (S)-3-Methyl-2-(1-oxo-6-(4-(2-phenoxybenzamido)phenyl)isoindolin-2-yl)butanoic acid], the inhibition at 1 µM is more than 50%.

For the compound `Cc1cc(C)c(C(=O)Nc2ccc(-c3ccc4c(c3)C(=O)N([C@H](C(=O)O)C(C)C)C4)cc2)c(C)c1` [Example 154, (S)-3-Methyl-2-(1-oxo-6-(4-(2,4,6-trimethylbenzamido)phenyl)isoindolin-2-yl)butanoic acid], the inhibition at 1 µM was 10 to 50%.

Take `COc1ccc(C(=O)Nc2ccc(-c3ccc4c(c3)C(=O)N([C@H](C(=O)O)C(C)C)C4)cc2)c(OC)c1` [Example 156, (S)-2-(6-(4-(2,4-Dimethoxybenzamido)phenyl)-1-oxoisoindolin-2-yl)-3-methyl butanoic acid]: the inhibition at 1 µM is more than 50%.

`CC(C)[C@@H](C(=O)O)N1Cc2ccc(-c3ccc(NC(=O)c4ccc(OC(F)(F)F)cc4)cc3)cc2C1=O` [Example 158, (S)-3-Methyl-2-(1-oxo-6-(4-(4-(trifluoromethoxy)benzamido)phenyl)isoindolin-2-yl)butanoic acid]: the inhibition at 1 µM is more than 50%.

For the compound `COc1ccccc1C(=O)Nc1ccc(-c2ccc3c(c2)C(=O)N([C@H](C(=O)O)C(C)C)C3)cc1` [Example 160, (S)-2-(6-(4-(2-Methoxybenzamido)phenyl)-1-oxoisoindolin-2-yl)-3-methyl butanoic acid], the inhibition at 1 µM is more than 50%.

With `Cc1cc(C(=O)Nc2ccc(-c3ccc4c(c3)C(=O)N([C@H](C(=O)O)C(C)C)C4)cc2)ccc1F` [Example 162, (S)-2-(6-(4-(4-Fluoro-3-methylbenzamido)phenyl)-1-oxoisoindolin-2-yl)-3-methyl butanoic acid], the inhibition at 1 µM is more than 50%.

On to `CCCCc1ccc(C(=O)Nc2ccc(-c3ccc4c(c3)C(=O)N([C@H](C(=O)O)C(C)C)C4)cc2)cc1` [Example 164, (S)-2-(6-(4-(4-Butylbenzamido)phenyl)-1-oxoisoindolin-2-yl)-3-methylbutanoic acid], for which the inhibition at 1 µM is more than 50%.

Take `Cc1ccc(F)c(C(=O)Nc2ccc(-c3ccc4c(c3)C(=O)N([C@H](C(=O)O)C(C)C)C4)cc2)c1F` [Example 166, (S)-2-(6-(4-(2,6-Difluoro-3-methylbenzamido)phenyl)-1-oxoisoindolin-2-yl)-3-methylbutanoic acid]: the inhibition at 1 µM is more than 50%.

Take `CCc1ccc(C(=O)Nc2ccc(-c3ccc4c(c3)C(=O)N([C@H](C(=O)O)C(C)C)C4)cc2)cc1` [Example 168, (S)-2-(6-(4-(4-Ethylbenzamido)phenyl)-1-oxoisoindolin-2-yl)-3-methylbutanoic acid]: the inhibition at 1 µM is more than 50%.

Turning to `CCCCCCCCc1ccc(C(=O)Nc2ccc(-c3ccc4c(c3)C(=O)N([C@H](C(=O)O)C(C)C)C4)cc2)cc1` [Example 172, (S)-3-Methyl-2-(6-(4-(4-octylbenzamido)phenyl)-1-oxoisoindolin-2-yl)butanoic acid], the inhibition at 1 µM is more than 50%.

`CC(C)[C@@H](C(=O)O)N1Cc2ccc(-c3ccc(NC(=O)c4ccc(C5CCCCC5)cc4)cc3)cc2C1=O` [Example 174, (S)-2-(6-(4-(4-Cyclohexylbenzamido)phenyl)-1-oxoisoindolin-2-yl)-3-methyl butanoic acid]: the inhibition at 1 µM is more than 50%.

Consider `CC(C)[C@@H](C(=O)O)N1Cc2ccc(-c3ccc(NC(=O)c4ccc5c(c4)C(C)(C)CCC5(C)C)cc3)cc2C1=O` [Example 176, (S)-3-Methyl-2-(1-oxo-6-(4-(5,5,8,8-tetramethyl-5,6,7,8-tetrahydronaphthalene-2-carboxamido)phenyl)isoindolin-2-yl)butanoic acid], for which the inhibition at 1 µM was more than 50%.

As to `CC(C)[C@@H](C(=O)O)N1Cc2ccc(-c3ccc(NC(=O)c4cccc5ccccc45)cc3)cc2C1=O` [Example 178, (S)-2-(6-(4-(1-Naphthamido)phenyl)-1-oxoisoindolin-2-yl)-3-methylbutanoic acid], the inhibition at 1 µM was in the range of 10 to 50%.

In the case of `COc1ccc(OC)c(C(=O)Nc2ccc(-c3ccc4c(c3)C(=O)N([C@H](C(=O)O)C(C)C)C4)cc2)c1` [Example 180, (S)-2-(6-(4-(3,6-Dimethoxybenzamido)phenyl)-1-oxoisoindolin-2-yl)-3-methyl butanoic acid], the inhibition at 1 µM was more than 50%.

For the compound `CCCCCCc1ccc(C(=O)Nc2ccc(-c3ccc4c(c3)C(=O)N([C@H](C(=O)O)C(C)C)C4)cc2)cc1` [Example 182, (S)-2-(6-(4-(4-Hexylbenzamido)phenyl)-1-oxoisoindolin-2-yl)-3-methylbutanoic acid], the inhibition at 1 µM was more than 50%.

In the case of `CCCCCCCc1ccc(C(=O)Nc2ccc(-c3ccc4c(c3)C(=O)N([C@H](C(=O)O)C(C)C)C4)cc2)cc1` [Example 184, (S)-2-(6-(4-(4-Heptylbenzamido)phenyl)-1-oxoisoindolin-2-yl)-3-methylbutanoic acid], the inhibition at 1 µM was more than 50%.

`CCCCCCCCCc1ccc(C(=O)Nc2ccc(-c3ccc4c(c3)C(=O)N([C@H](C(=O)O)C(C)C)C4)cc2)cc1` [Example 186, (S)-3-Methyl-2-(6-(4-(4-nonylbenzamido)phenyl)-1-oxoisoindolin-2-yl)butanoic acid]: the inhibition at 1 µM was more than 50%.

Take `CCCCCCCCCCc1ccc(C(=O)Nc2ccc(-c3ccc4c(c3)C(=O)N([C@H](C(=O)O)C(C)C)C4)cc2)cc1` [Example 188, (S)-2-(6-(4-(4-Decylbenzamido)phenyl)-1-oxoisoindolin-2-yl)-3-methyl butanoic acid]: the inhibition at 1 µM is more than 50%.

In the case of `CC(C)[C@@H](C(=O)O)N1Cc2ccc(-c3ccc(NC(=O)C4C5CC6CC(C5)CC4C6)cc3)cc2C1=O` (stereo partly drawn) [Example 190, (S)-2-(6-(4-(Adamantyl-2-carboxamido)phenyl)-1-oxoisoindolin-2-yl)-3-methylbutanoic acid], the “% Inhibition of hDGAT1” value (at 1 μM) is on record as “++ (>50% Inhibition)”.

In the case of `CC(C)[C@@H](C(=O)O)N1Cc2ccc(-c3ccc(NC(=O)c4ccc(C(F)(F)F)cc4F)cc3)cc2C1=O` [Example 192, (S)-2-(6-(4-(2-Fluoro-4-(trifluoromethyl)benzamido)phenyl)-1-oxoisoindolin-2-yl)-3-methylbutanoic acid], the inhibition at 1 µM was more than 50%.
